Assay results from PubChem BioAssay AID463229 (Broad Institute, 2010).
Calls of active or inactive are those of the source.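 Rule for the calls: active = compounds raising the signal whose fitted half-maximal concentration is at or below their top tested dose (cut at about 25 µM in these data); inconclusive = flat fit at 30 to 70% activity, or a poor fit; inactive = the rest.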

Test system: INS-1E rat beta cells, no cytokines, CellTiter-Glo ATP, 48 h
Assay: cytokine-free beta-cell viability effect – INS-1E rat cells, ATP luminescence, cherry pick, counter-screen for beta-cell apoptosis protection project, dose response (AID 463229)

C#CCOCCOCCOCCNc1nc(N2CCN(C(=O)CCCCCCCCCCNC(=O)[C@H]([C@@H](C)CC)n3cc(CCCCCN)nn3)CC2)nc(N2CCN(C(=O)CCCCCCCCCCNC(=O)[C@H]([C@@H](C)CC)n3cc(CCCCN=C(N)N)nn3)CC2)n1 gave an AC50 of 6.72 µM.
In the case of CCN1CCN(Cc2ccc(NC(=O)c3ccc(C)c(NC(=O)c4c[nH]c5cc(C(F)(F)F)ccc5c4=O)c3)cc2C(F)(F)F)CC1, the AC50 is reported as 7.07 µM.
Molecule C=C(C(=O)c1ccccc1)C(C(=C)C(=O)c1ccccc1)c1ccc(OC)cc1 has an AC50 of 7.54 µM.
C/C(=N\NC(=O)c1ccccc1Cl)c1ccccn1 showed an AC50 of 5.98 µM.
O=C(/C(N=Nc1cccc([N+](=O)[O-])c1)=C(/O)c1ccc(Br)cc1)C(F)(F)F gave an AC50 of 6.66 µM.
CC1CC(C)CN(S(=O)(=O)c2ccc(C(=O)NCCCn3ccnc3)cc2)C1 (stereo not given) was tested, and the AC50 was 0.577 µM.
For O=[N+]([O-])c1ccc(Sc2cccc3cccnc23)c([N+](=O)[O-])c1, the AC50 was 14.5 µM.
O=C(N/N=C/c1sc2ccccc2c1O)c1cccc2ccccc12 gave an AC50 of 4.8 µM.
With Cc1ccccc1NC1=C/C(=N\S(=O)(=O)c2cccs2)c2ccccc2C1=O the AC50 was 1.79 µM.
With COc1ccc(C(=O)NN/C(C)=C/C(=O)C(F)(F)C(F)(F)C(F)(F)F)cc1 the AC50 was > 26 µM (inactive).
Work on COc1ccc(N/N=C/c2c(C(=O)O)ccc3ccccc23)cc1 yielded an AC50 of 4.35 µM.
For CN(C)CCCNS(=O)(=O)c1ccc(NC2CCCCCC2)c([N+](=O)[O-])c1, the AC50 was 7.27 µM.
In the case of Oc1ccc(N=Nc2ccccc2C(F)(F)F)c2cccnc12, the AC50 is reported as 3.18 µM.
Cc1ccccc1OCCn1c(C)nc2ccccc21 was tested, and the AC50 was 15.2 µM.
With CCCC[n+]1ccn(C2=C([O-])c3ccccc3C(=O)/C2=N\S(=O)(=O)c2ccc(Cl)cc2)c1 the AC50 was 15.8 µM.
For N#Cc1c(N2CCCCC2)nc(N2CCCCC2)c2c1CCN(Cc1ccccc1)C2, the AC50 was 13.8 µM.
CCC(CO)Oc1cc(NCc2ccc(C(C)(C)C)cc2)c2ncn(C(C)C)c2c1 (stereo not given) showed an AC50 of 2.45 µM.
For Cc1cc(C)c(S(=O)(=O)/N=C2\C=C(Nc3ccc(C(=O)O)cc3)C(=O)c3ccccc32)c(C)c1, the AC50 was 5.39 µM.
Work on Cc1ccc(-c2c[n+](Cc3ccc(Cl)c(Cl)c3)c3n2CCC3)cc1 yielded an AC50 of 4.72 µM.
For CCC1CCCCN1C(=O)c1cc(COc2ccc3ncccc3c2)on1 (stereo not given), the AC50 was 2.74 µM.
In the case of CN1/C(=C\P(=O)(N(C)C)N(C)C)C(C)(C)c2ccccc21, the AC50 is reported as 4.86 µM.
In the case of O=C(Nc1ccc([N+](=O)[O-])cc1)Nc1nc(-c2ccc(Cl)s2)cs1, the AC50 is reported as 1.88 µM.
NC(=S)N/N=C/c1ccccc1O was tested, and the AC50 was > 26 µM (inactive).
Work on O=C1C=C(Nc2ccc(F)cc2)c2ccccc2C1=O yielded an AC50 of 7.19 µM.
Cc1occc(=O)c1OC(=O)Nc1ccc(Cl)c(Cl)c1 showed an AC50 of 7.74 µM.
Work on O=C(Nc1ccc(N2CCN(Cc3ccccc3Cl)CC2)cc1)c1cccnc1 yielded an AC50 of 5.98 µM.
With COc1ccccc1N1CCN(Cc2ccc(O)c3ncccc23)CC1 the AC50 was 5.14 µM.
With O=[N+]([O-])c1c(Nc2ccc(O)cc2)cc(Cl)c2nonc12 the AC50 was 8.76 µM.
CCCCCCSc1cccc(-c2nc3ccccn3c2NCc2ccccc2)c1 showed an AC50 of 6.25 µM.
With O=C(N/N=C/c1ccc(O)cc1O)c1ccc(CN2C(=O)c3cccc4cccc2c34)cc1 the AC50 was 3.89 µM.
Molecule CCCOc1nc2c(c(=O)n(C)c(=O)n2C)n1Cc1cccc2ccccc12 has an AC50 of 14.4 µM.
O=C(N/N=C/c1sc2ccccc2c1O)c1ccccc1 was tested, and the AC50 was 3.92 µM.
COc1cccc(/C=N/NC(=O)c2ccc(-c3ccccc3)cc2)c1O was tested, and the AC50 was 13.1 µM.
Work on CC(=O)N1CCN(c2ccc(Oc3ccc([N+](=O)[O-])c(C(F)(F)F)c3)cc2)CC1 yielded an AC50 of 7.04 µM.
With COc1ccc(-c2cn(-c3ccc(Cl)cc3)c3[n+]2CCCCC3)cc1 the AC50 was 2 µM.
In the case of COc1cc(/C=C(/C(=O)c2cccs2)c2nc3ccccc3[nH]2)ccc1O, the AC50 is reported as 12.9 µM.
Cc1cccc(/C=N/NC(=O)c2c(-c3ccccc3)noc2C)c1O was tested, and the AC50 was 7.61 µM.
C=C(C)C(=O)N1CC2(CC(c3cccc(NC(=O)COc4ccc(Cl)cc4)c3)=NO2)C[C@@H]1C(N)=O (stereo not given in full) showed an AC50 of 12.8 µM.
For Cc1nc2c3cc(F)ccc3n(Cc3ccccc3)c2s1, the AC50 was > 26 µM (inactive).
CN1C2CCC1/C(=C/c1ccccn1)C(=O)/C2=C\c1ccccn1 showed an AC50 of 2.11 µM.
CCCCNc1c(-c2ccc(OC)c(SC(C)CC)c2)nc2ccc(C)cn12 (stereo not given) showed an AC50 of 4.44 µM.
CC(C)C[C@H]1CN=C(Nc2ccccc2)N1CC1CCC(C(C)(C)C)CC1 (stereo not given in full) gave an AC50 of 8.6 µM.
Molecule Cc1cc(-c2n[nH]c(=S)n2/N=C/C(Br)=C/c2ccccc2)n[nH]1 has an AC50 of 15.6 µM.
CCSc1ccc(NC(=O)c2cccnc2)cc1 showed an AC50 of 11.1 µM.
For Cc1ccc(OCCN2CCN(c3ncnc4sc(C)c(C)c34)CC2)cc1, the AC50 was 4.03 µM.
Molecule COc1cc2c(cc1OC)[C@@H]1C(=O)c3ccc4c(c3O[C@@H]1CO2)C[C@H](C(C)C)O4 has an AC50 of under 0.195 µM.
CCn1c(/C=C/c2ccc([N+](=O)[O-])o2)nc2ccccc2c1=O was tested, and the AC50 was 4.08 µM.
Molecule C#CCOCCOCCOCCNc1nc(N2CCN(C(=O)CCCCCCCCCCNC(=O)[C@H]([C@@H](C)CC)n3cc(CCCCCN)nn3)CC2)nc(N2CCN(C(=O)CCCCCCCCCCNC(=O)[C@@H]([C@H](C)O)n3cc(C)nn3)CC2)n1 has an AC50 of 6.55 µM.
Molecule O=c1nccc(N/N=C/c2ccccc2O)[nH]1 has an AC50 of 23.3 µM.
O=C(CN1CC[n+]2c(-c3cccs3)csc21)c1ccc(-c2ccccc2)cc1 gave an AC50 of 2.34 µM.
